The assay addresses human GPR120 (Homo sapiens (Human), UniProt Q5NUL3). The assay is described as follows: GPR120 pERK AlphaScreen SureFire Assay (human GPR120 pERK assay). In kind it is cell-based. The note with it: CHO cells stably transfected with short form of human GPR120. An excerpt:
GPR120 activity was monitored by measuring phosphorylation of ERK (pERK), since G protein receptors are known to activate the ERK signaling cascade either directly and/or through recruitment of arrestin that serves as a scaffold for downstream signaling events.
GPR120 pERK AlphaScreen SureFire Assay
The human and mouse GPR120-mediated intracellular phosphorylated ERK assays were established using CHOA12 cells stably transfected with the short form of human or mouse GPR120 receptor. Cells were cultured in growth medium consisting of F-12 media (Invitrogen Cat. #11765) with 5% Charcoal/Dextran FBS (Invitrogen Cat. #12676-029), 500 μg/mL GENETICIN® (Life Technologies Cat. #10131-027) and 250 μg/mL Zeocin (Invitrogen Cat. #R250-01). Cells were cryo-preserved at a concentration of 2×10^7 cells/mL, in 90% Charcoal/Dextran FBS and 10% DMSO, and frozen in liquid nitrogen at a low passage number.
For the pERK assay, 2×10^7 cells/mL cryopreserved human and mouse cells were thawed rapidly in a 37° C. water bath and added to a T-225 flask containing 50 mL growth medium. The flasks were placed in a tissue culture incubator overnight (37° C., 5% CO2). The next day, cells were harvested with trypsin (Gibco Cat. #25300-054), resuspended in serum-containing growth medium and counted using a Cellometer and volume adjusted to a concentration of 0.6×10^6 cells/mL. Cells were plated into 384-well clear bottom tissue culture plates (BD Cat. #353962) at 50 μL/well, for a density of 30,000 cells/well using a MULTIDROP® and incubated for 16-18 hours (overnight) at 37° C. with 5% CO2. The next day, cells were serum starved in 30 μL of F-12 media without any serum or antibiotics for 2 hours at 37° C.
Test compounds were 3-fold, 11-point serially diluted in DMSO in a REMP assay plate (Matrix Cat. #4307) by Tecan and 5 μL was transferred into an ECHO source plate (Labcyte Cat. #LC-0200). Cells were then stimulated with 50 nL of compound dilutions using ECHO liquid handler for 7 min at 37° C. Compounds ranged from final assay concentrations of 33.33 μM to 0.56 nM.
The media was then dumped and cells lysed with 20 μL of 1× Lysis buffer from the AlphaScreen SureFire Phospho-ERK 1/2 Kit (Perkin Elmer Cat. #6760617M). The lysis buffer was diluted 5-fold with water before use. The plate was agitated on a shaker for 10 min after which 2 μL was transferred into a 384-well white proxiplate (Perkin Elmer Cat. #6008289). The SureFire assay reagent mix was prepared by mixing 60 parts Reaction Buffer, 10 parts Activation Buffer, 1 part Donor Beads, 1 part Acceptor Beads (Perkin Elmer Cat. #TGRES10K). 3.5 μL/well of this reagent mix was manually added to the proxiplate with a multichannel pipettor. Plates were spun down at 1000 rpm for 2 min, followed by light-protected incubation at room temperature for 2 hours. The plates were read on the Alpha-technology compatible Envision multilabel plate reader using AlphaScreen protocol according to manufacturer's specifications. The agonist effect of compounds was expressed as 100×(average sample-average blank)/(average total-average blank) where sample is the luminescence activity in the presence of test compound, blank is equal to the luminescence activity in the presence of DMSO control and the total is signal induced by 50 μM linolenic acid as reference compound. Activation data for the test compound over a range of concentrations was plotted as percentage activation of the test compound (100%=maximum response). After correcting for background, EC50 values were determined. The EC50 is defined as the concentration of test compound which produces 50% of the maximal response and was quantified using the 4 parameter logistic equation to fit the data.
The human and mouse GPR120-mediated intracellular phosphorylated ERK assays were also established using CHO-K1 cells stably transfected with the short form of human or mouse GPR120 receptor. […]

Each structure is given as a SMILES string.

Sequence of human GPR120 (Q5NUL3 whole entry): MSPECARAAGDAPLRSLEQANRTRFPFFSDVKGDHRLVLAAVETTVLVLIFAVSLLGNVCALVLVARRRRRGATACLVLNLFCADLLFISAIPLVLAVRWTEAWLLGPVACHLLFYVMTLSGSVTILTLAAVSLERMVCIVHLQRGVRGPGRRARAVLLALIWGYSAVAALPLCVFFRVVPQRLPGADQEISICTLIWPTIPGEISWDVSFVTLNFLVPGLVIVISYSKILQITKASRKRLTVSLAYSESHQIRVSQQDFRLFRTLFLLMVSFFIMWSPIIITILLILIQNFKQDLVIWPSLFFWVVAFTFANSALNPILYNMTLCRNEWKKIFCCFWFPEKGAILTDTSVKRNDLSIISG

Broadly, the EC50 is the midpoint of the concentration-response curve. Low values mean an effect from little substance, high ones a need for much substance. Compound `CC(C)Oc1ccc(F)c(-c2ccc(CC[C@]3(F)C[C@@H]3C(=O)O)cc2)c1` (racemic) [Example 40, Trans-2-fluoro-2-(2-(2′-fluoro-5′-isopropoxy-[1,1′-biphenyl]-4-yl)ethyl) cyclopropanecarboxylic acid] yielded a 50% effective concentration (EC50) of 5090 nM.
Still for that read-out and setting: the same measure for `O=C(O)[C@@H]1CC1COc1ccc(-c2cc(Oc3cccc(F)c3)cnc2Cl)cc1` (stereo partly drawn) [Example 112]: 210 nM.
On the same count and under the same terms, the value for `O=C(O)[C@H]1C[C@@H]1COc1ccc(-c2cc(Oc3ccccc3)ccc2F)cc1F` (single isomer, unassigned) [Example 11] was 160 nM; that for `CCOc1ccc(F)c(-c2ccc(OC[C@@H]3C[C@H]3C(=O)O)cc2)c1` (racemic) [Example 68, Trans-2-(((5′-ethoxy-2′-fluoro-[1,1′-biphenyl]-4-yl)oxy)methyl) cyclopropanecarboxylic acid] was 660 nM.
On to `Cc1ccc(Oc2ccc(F)c(-c3ccc(OC[C@@H]4C[C@H]4C(=O)O)cc3)c2)cn1` (racemic) [Example 114, Trans-2-(((2′-fluoro-5′-((6-methylpyridin-3-yl)oxy)-[1,1′-biphenyl]-4-yl)oxy)methyl) cyclopropanecarboxylic acid], for which a half-maximal effect (EC50) was put at 140 nM.
Still for that read-out and setting: the same measure for `Cc1ccc(Oc2ccc(F)c(-c3ccc(OCC4C[C@H]4C(=O)O)cc3)c2)cn1` (stereo partly drawn) [Example 115]: 190 nM; for `CC(C)Oc1ccc(F)c(-c2ccc(COC[C@@H]3C[C@H]3C(=O)O)cc2)c1` (racemic) [Example 24, Trans-2-(((2′-fluoro-5′-isopropoxy-[1,1′-biphenyl]-4-yl)methoxy)methyl) cyclopropanecarboxylic acid]: 440 nM; for `CC(C)Oc1cccc(-c2ccc(OC[C@@H]3C[C@H]3C(=O)O)cc2)c1` (racemic) [Example 73, Trans-2-(((3′-isopropoxy-[1,1′-biphenyl]-4-yl)oxy)methyl) cyclopropanecarboxylic acid]: 1380 nM.
Same read-out and setting: the same measure for `O=C(O)[C@@H]1C[C@H]1CCc1ccc(-c2cc(Oc3ccccc3)ccc2F)cc1` (racemic) [Example 76, Trans-2-(2-(2′-fluoro-5′-phenoxy-[1,1′-biphenyl]-4-yl)ethyl) cyclopropanecarboxylic acid]: 470 nM.
Same read-out and setting: the value for `O=C(O)[C@@H]1C[C@H]1COc1ccc(-c2cc(Oc3cccc(F)c3)ccc2F)cc1` (racemic) [Example 42, Trans-2-(((2′-fluoro-5′-(3-fluorophenoxy)-[1,1′-biphenyl]-4-yl)oxy)methyl)cyclopropanecarboxylic acid] was 180 nM.
`CC(C)Sc1ncc(C(F)(F)F)cc1-c1ccc(OC[C@@H]2C[C@H]2C(=O)O)cc1` (racemic) [Example 69, Trans-2-((4-(2-(isopropylthio)-5-(trifluoromethyl)pyridin-3-yl)phenoxy)methyl)cyclopropanecarboxylic acid] yielded an EC50 of 10800 nM.
On the same count and under the same terms, the same measure for `COc1cc(OC(F)(F)F)cc(-c2ccc(OC[C@@H]3C[C@H]3C(=O)O)cc2)c1` (racemic) [Example 74, Trans-2-(((3′-methoxy-5′-(trifluoromethoxy)-[1,1′-biphenyl]-4-yl)oxy)methyl)cyclopropanecarboxylic acid]: 610 nM.
Same read-out and setting: the value for `O=C(O)[C@@H]1C[C@@H]1COc1ccc(-c2cc(Oc3ccccc3)ccc2F)cc1` (single isomer, unassigned) [Example 5] was 2110 nM; that for `O=C(O)[C@@H]1C[C@H]1COc1ccc(-c2cc(Oc3ccccc3)ccc2F)cc1F` (single isomer, unassigned) [Example 10] was 80 nM.
As to `CC1(C)Cc2c(F)cc(-c3ccc(OC[C@@H]4C[C@H]4C(=O)O)cc3)cc2O1` (racemic) [Example 21, Trans-2-((4-(4-fluoro-2,2-dimethyl-2,3-dihydrobenzofuran-6-yl)phenoxy)methyl) cyclopropanecarboxylic acid], the “EC50 (μM)” value was “Not active”.
On to `Cc1cc(-c2ccc(OC[C@@H]3C[C@H]3C(=O)O)cc2)n(-c2ccc(Cl)cc2)n1` (racemic) [Example 82, Trans-2-((4-(1-(4-chlorophenyl)-3-methyl-1H-pyrazol-5-yl)phenoxy)methyl) cyclopropanecarboxylic acid], for which the midpoint of the response, the EC50, lay at 4960 nM.
On the same count and under the same terms, the value for `O=C(O)[C@@H]1C[C@H]1COc1ccc(-c2cc(Oc3ccccc3)cnc2Cl)cc1` (racemic) [Example 110, Trans-2-((4-(2-chloro-5-phenoxypyridin-3-yl)phenoxy)methyl)cyclopropanecarboxylic acid] was 430 nM; that for `O=C(O)[C@@H]1C[C@H]1COc1ccc(-c2cc(Oc3cccc(F)c3)cnc2Cl)cc1` (racemic) [Example 111, Trans-2-((4-(2-chloro-5-(3-fluorophenoxy)pyridin-3-yl)phenoxy)methyl) cyclopropanecarboxylic acid] was 190 nM; that for `O=C(O)[C@@H]1C[C@H]1COc1ccc(-c2cc(OC(F)(F)F)ccc2Cl)cc1` (racemic) [Example 54, Trans-2-(((2′-chloro-5′-(trifluoromethoxy)-[1,1′-biphenyl]-4-yl)oxy)methyl)cyclopropanecarboxylic acid] was 500 nM.
The same measure, in the same setting: the value for `CC(C)Oc1ccc(F)c(-c2ccc(OC[C@H]3C[C@H]3C(=O)O)cc2)c1` (single isomer, unassigned) [Example 7] was 2810 nM; that for `O=C(O)[C@@H]1C[C@H]1COc1ccc(-c2cc(Oc3ccc(Cl)cc3)ccc2F)cc1` (racemic) [Example 92, Trans-2-(((5′-(4-Chlorophenoxy)-2′-fluoro-[1,1′-biphenyl]-4-yl)oxy)methyl) cyclopropanecarboxylic acid] was 300 nM; that for `CC[C@@H](C)Oc1ccc(F)c(-c2ccc(OCC3CC3C(=O)O)cc2)c1` (stereo partly drawn) [Example 93, Trans-2-(((5′-((R)-sec-butoxy)-2′-fluoro-[1,1′-biphenyl]-4-yl)oxy)methyl) cyclopropanecarboxylic acid] was 300 nM.
Still for that read-out and setting: the value for `O=C(O)C1CC1COc1ccc(-c2cc(OC(F)(F)F)ccc2F)cc1` (single isomer, unassigned) [Example 53, Trans-2-(((2′-fluoro-5′-(trifluoromethoxy)-[1,1′-biphenyl]-4-yl)oxy)methyl)cyclopropanecarboxylic acid] was 330 nM; that for `CC(C)Oc1cc(F)c(F)c(-c2ccc(OC[C@@H]3C[C@H]3C(=O)O)c(F)c2)c1` (single isomer, unassigned) [Example 66] was 320 nM; that for `O=C(O)C1CC1COc1ccc(-c2cc(OC(F)(F)F)ccc2F)cc1` (racemic) [Example 51, Trans-2-(((2′-fluoro-5′-(trifluoromethoxy)-[1,1′-biphenyl]-4-yl)oxy)methyl)cyclopropanecarboxylic acid] was 470 nM.
In turn, `O=C(O)[C@@H]1C[C@H]1COc1ccc(-c2cc(C(F)(F)F)ccc2Cl)cc1` (racemic) [Example 121, Trans-2-(((2′-chloro-5′-(trifluoromethyl)-[1,1′-biphenyl]-4-yl)oxy)methyl)cyclopropanecarboxylic acid] had a concentration for a half-maximal effect (EC50) of 1250 nM.
Same read-out and setting: the value for `CC(C)Oc1ccc(F)c(-c2ccc(C[C@@H]3C[C@H]3CC(=O)O)cc2)c1` (single isomer, unassigned) [Example 35, Trans-(2-((2′-fluoro-5′-isopropoxy-[1,1′-biphenyl]-4-yl)methyl)cyclopropyl)acetic acid] was 330 nM.

Values taken from US9938222B2 (BRISTOL-MYERS SQUIBB COMPANY, priority 2014, dated 2018).
